Data taken from paper PMC11982498 (Redox Biology, 2025).

Tested on: APP/PS1 transgenic mice
Test: Novel object recognition (NOR)
Type: in vivo
Conditions: B14 10, 20, 40 mg/kg i.p. every other day
From the text: Five months old male APP/PS1 mice, weighing 25–33 g, were purchased from Guangdong Medical Laboratory Animal Center and housed in the Laboratory Animal Center of Sun Yat-sen University (Guangzhou, China) for experimentation. All procedures were approved by the Animal Care and Use Committee of Sun Yat-sen University and complied with legal requirements and national guidelines for the care and maintenance of laboratory animals (Approval No. SYSU-IACUC-2024-002032). The mice were housed in a specific pathogen-free environment with a controlled temperature of 22 ± 1 °C and a 12-h dark/light cycle. The mice were fed with a standard diet, and 30 mice were randomly divided into 6 groups (N = 5). Compound B14 was dissolved in saline and administered at doses of 10, 20, or 40 mg/kg. […]
The spatial memory and learning abilities of the mice were assessed using Morris water maze (MWM), novel object recognition (NOR) and nesting experiments (NBT). The anxiety and depressive behaviors were evaluated through the open field test (OFT) and elevated plus maze (EPM). […]
The novel object recognition (NOR) test evaluates mice's memory for familiar objects and their exploration of novel objects. […] The time spent exploring each object was recorded. The mice's learning and memory abilities were assessed by calculating the preference index (PI) using the formula PI = tB / (tA1 + tB).

`O=C(CCN1CCOCC1)Nc1ccc2c(c1)c(=O)c1cc(NC(=O)CCN3CCOCC3)ccc1n2-c1ccc2occc2c1` [Compound B14] was tested, and the “times to touch new objects and index of preference (NOR)” value was “significantly increased”.
